Measured values reported in patent publication US12161647B2, “Treating hearing loss” (Massachusetts Eye and Ear Infirmary, priority 2012, dated 2024).

What was measured:
noise-damaged cochlea = test: Hair cell number after systemic LY411575 in noise-damaged mice; format: in vivo, mouse; settings: oral 50 mg/kg for 5 d
Description: (§1) 4-week-old mice were exposed free-field, awake and unrestrained, in a small reverberant chamber (22). Acoustic trauma was produced by a 2 h exposure to an 8-16 kHz octave band noise presented at 116 dB SPL. The exposure stimulus was generated by a custom white-noise source, filtered (Brickwall Filter with a 60 dB/octave slope), amplified (Crown power amplifier), and delivered (JBL compression driver) through an exponential horn fitted securely to a hole in the top of a reverberant box.
For systemic administration, LY411575 (50 mg/kg) dissolved in 0.5% (wt/vol) methylcellulose (WAKO) was injected orally once daily for 5 consecutive d. Hearing was measured by ABR at 1 d before, 2 d, 1, 2 week, 1, 2 and 3 months after noise exposure.
For collection of mature mouse cochleae, after being deeply anesthetized with ketamine and xylazine, the mice were transcardially perfused with 0.01 M phosphate buffer (pH 7.4) containing 8.6% sucrose, followed by fixative consisting of freshly depolymerized 4% paraformaldehyde in 0.1 M phosphate buffer (pH 7.4). […] Primary antibodies were detected with secondary antibodies conjugated with Alexa 488, 568, and 647 (Molecular Probes) and viewed by confocal fluorescence microscopy (TCS SP5, Leica). […]
Cell counting for spheres was performed with MetaMorph software. The cell number was determined from DAPI- or Hoechst-positive nuclei. […]

deafened ears = test: ABR and DPOAE in deafened ears after round window administration; format: in vivo, mouse
Description: as §1
4-week-old mice weighing 12 to 16 g were used. Before surgery, the animals were anesthetized with ketamine (20 mg/kg, i.p.) and xylazine (100 mg/kg, i.p.), and an incision was made posterior to the pinna near the external meatus after local administration of lidocaine (1%). The otic bulla was opened to approach the round window niche. The end of a piece of PE 10 tubing (Becton Dickinson) was drawn to a fine tip in a flame and gently inserted into the round window niche. LY411575 was dissolved in DMSO and diluted 10-fold in polyethylene glycol 400 (Sigma) to a final concentration of 4 mM. This solution (total volume 1 μl) was injected into the round window niche of the left ear. Polyethylene glycol 400 with 10% DMSO was injected into the right ear as a control. The solution was administered for 2 min. This approach is presently used clinically (e.g. transtympanic injection of steroids for sudden hearing loss and gentamicin for severe balance disorders) and has the advantage of sparing the […] but still taking advantage of the local route provided by the round window membrane for delivery of drug into the inner ear (50). Gelatin was placed on the niche to maintain the solution, and the wound was closed.
Auditory brain stem responses (51, 52) were measured in each animal at 7 log-spaced frequencies (half-octave steps from 5.6 to 45.2 kHz) before and 1 d after noise exposure, and 1-week, 1-month, and 3-months after surgery. Mice were anesthetized with ketamine (100 mg/kg i.p.) and xylazine (20 mg/kg i.p.). Needle electrodes were inserted at vertex and pinna, with a ground near the tail. ABRs were evoked with 5-ms tone pips (0.5-ms rise-fall with a cos^2 onset envelope delivered at 35/s). The response was amplified, filtered and averaged in a LabVIEW-driven data-acquisition system. Sound level was raised in 5 dB steps from ≥10 dB below threshold <80 dB SPL. At each sound level, 1024 responses were averaged (with stimulus polarity alternated), using an “artifact reject,” whereby response waveforms were discarded when peak-to-peak response amplitude exceeded 15 μV. […] For amplitude versus level functions, the wave I peak was identified by visual inspection at each sound level and the peak-to-peak amplitude computed.

SMILES: C[C@H](NC(=O)[C@@H](O)c1cc(F)cc(F)c1)C(=O)N[C@@H]1C(=O)N(C)c2ccccc2-c2ccccc21 [LY411575, N-2((2S)-2-(3,5-difluorophenyl)-2-hydroxyethanoyl)-N1-((7S)-5-methyl-6-oxo-6,7-dihydro-5H-dibenzo[b,d]azepin-7-yl)-l-alaninamide]
- outer hair cell numbers (noise-damaged cochlea): increased
- ABR wave I amplitudes (deafened ears; 8, 11.33 and 16 kHz, 3 months): increased
- ABR threshold recoveries (deafened ears; 8, 11.33 and 16 kHz, 3 months after treatment vs 1 d after noise): significantly greater than control
- sound level at which the ABR peak could first be detected (deafened ears; 8 kHz, 3 months after treatment, example mouse, control side 75 dB): 65 dB
- ABR threshold recoveries at high frequencies (deafened ears; frequencies above 22.65 kHz, either ear): No threshold recoveries
- recoveries above the noise floor of DPOAE (deafened ears; mouse, in vivo): no recoveries
